Results on two compounds are retold here after PMC6274715, “Discovery of Novel Druggable Sites on Zika Virus NS3 Helicase Using X-ray Crystallography-Based Fragment Screening” (International Journal of Molecular Sciences, 2018).

SMILES strings stand for the structures.

The test concerns the target T1, ZIKV NS3-Hel (Zika virus NS3 helicase) (Zika virus ZIKV/H. sapiens/FrenchPolynesia/10087PF/2013, UniProt A0A024B7W1).
T1 construct: helicase domain, residues 171-617 of NS3, cut from the genome polyprotein; N-terminal 6xHis-SUMO tag cleaved off
In words: STD NMR titration; crystal structure also solved. The test is classed as binding.

T1 sequence (A0A024B7W1 1673-2119): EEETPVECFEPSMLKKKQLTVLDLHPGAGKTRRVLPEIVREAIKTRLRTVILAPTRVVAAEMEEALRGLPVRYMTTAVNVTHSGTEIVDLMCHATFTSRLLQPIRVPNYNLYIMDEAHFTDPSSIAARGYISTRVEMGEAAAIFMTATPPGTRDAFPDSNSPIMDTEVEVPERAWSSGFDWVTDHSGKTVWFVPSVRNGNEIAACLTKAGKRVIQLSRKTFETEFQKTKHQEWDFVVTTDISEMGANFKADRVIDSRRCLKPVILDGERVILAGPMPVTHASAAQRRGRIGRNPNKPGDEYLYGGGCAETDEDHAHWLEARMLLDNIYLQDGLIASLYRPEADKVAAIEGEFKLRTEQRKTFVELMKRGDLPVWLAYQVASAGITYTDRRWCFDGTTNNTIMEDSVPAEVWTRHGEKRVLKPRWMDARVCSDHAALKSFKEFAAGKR

Consider `Nc1nc(N)c2[nH]cnc2n1` [compound 1, 2,6-di-aminopurine], for which binding was characterised by a dissociation constant (Kd) of 2.8 ± 0.4 mM.
Compound `NC(=O)c1ccc(Cl)cc1Cl` [compound 4, 2,4-dicholorobenzamide] registered a Kd of 5.1 ± 1.4 mM.
